Data reported in the supplement of paper PMC10307832.

Columns and labels:
Assay in all cases: relative viability (nuclei count vs DMSO), 5 days (fraction); higher = more cells survive
[1] = test system: H3255
In short: (§1)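 Cells from lung cancer lines were seeded into 1536-well plates and, one day later, dosed by pin tool. Treatments were either a single drug or a fixed dose of an anchor drug with five library-drug doses (not always all listed) in √10 steps. After 5 days, nuclei were stained in a one-step fixation (final 0.05% Triton X-100, 1% formaldehyde, 1 ug/ml Hoechst) and counted on 4× images, and relative viability is the treated-to-vehicle nuclei ratio, as the median of duplicate plates.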

[2] = test system: HCC-827
In short: as §1

[3] = test system: NCI-H1915
In short: as §1

[4] = test system: LC-2-ad
In short: as §1

[5] = test system: NCI-H1792
In short: as §1

[6] = test system: EMC-BAC-2
In short: as §1

[7] = test system: HCC-15
In short: as §1

[8] = test system: PC-14
In short: as §1

[9] = test system: EKVX
In short: as §1

[10] = test system: LCLC-97TM1
In short: as §1

[11] = test system: NCI-H23
In short: as §1

[12] = test system: NCI-H1993
In short: as §1

[13] = test system: NCI-H1944
In short: as §1

[14] = test system: SK-LU-1
In short: as §1

[15] = test system: NCI-H460
In short: as §1

[16] = test system: NCI-H1793
In short: as §1

[17] = test system: NCI-H322M
In short: as §1

[18] = test system: EPLC-272H
In short: as §1

[19] = test system: NCI-H661
In short: as §1

SMILES: COCC1(CO)C(=O)C2CCN1CC2 (centres undefined) [PRIMA-1MET] + C[C@]1(O)C[C@@H](c2nc(-c3ccc4ccc(-c5ccccc5)nc4c3)c3c(N)nccn32)C1 [Linsitinib] (partner 1 µM)
- relative viability ([1]; first compound 0.2 µM): 1.13
- relative viability ([1]; first compound 0.6325 µM): 1.01
- relative viability ([1]; first compound 2 µM): 0.8
- relative viability ([1]; first compound 6.325 µM): 1.01
- relative viability ([1]; first compound 20 µM): 0.918
- relative viability ([2]; first compound 0.2 µM): 1.04
- relative viability ([2]; first compound 0.6325 µM): 0.884
- relative viability ([2]; first compound 2 µM): 0.698
- relative viability ([2]; first compound 6.325 µM): 0.962
- relative viability ([2]; first compound 20 µM): 0.906
- relative viability ([3]; first compound 0.2 µM): 1.26
- relative viability ([3]; first compound 0.6325 µM): 0.933
- relative viability ([3]; first compound 2 µM): 1.03
- relative viability ([3]; first compound 6.325 µM): 1.11
- relative viability ([3]; first compound 20 µM): 1.08
- relative viability ([4]; first compound 0.2 µM): 0.967
- relative viability ([4]; first compound 0.6325 µM): 0.843
- relative viability ([4]; first compound 2 µM): 0.754
- relative viability ([4]; first compound 6.325 µM): 0.858
- relative viability ([4]; first compound 20 µM): 0.598
- relative viability ([5]; first compound 0.2 µM): 0.521
- relative viability ([5]; first compound 0.6325 µM): 0.477
- relative viability ([5]; first compound 2 µM): 0.368
- relative viability ([5]; first compound 6.325 µM): 0.578
- relative viability ([5]; first compound 20 µM): 0.53
- relative viability ([6]; first compound 0.2 µM): 0.843
- relative viability ([6]; first compound 0.6325 µM): 0.822
- relative viability ([6]; first compound 2 µM): 0.784
- relative viability ([6]; first compound 6.325 µM): 0.821
- relative viability ([6]; first compound 20 µM): 0.817
- relative viability ([7]; first compound 0.2 µM): 0.893
- relative viability ([7]; first compound 0.6325 µM): 0.544
- relative viability ([7]; first compound 2 µM): 0.78
- relative viability ([7]; first compound 6.325 µM): 0.903
- relative viability ([7]; first compound 20 µM): 0.722
- relative viability ([8]; first compound 0.2 µM): 0.918
- relative viability ([8]; first compound 0.6325 µM): 0.978
- relative viability ([8]; first compound 2 µM): 0.923
- relative viability ([8]; first compound 6.325 µM): 0.987
- relative viability ([8]; first compound 20 µM): 0.927
- relative viability ([9]; first compound 0.2 µM): 0.999
- relative viability ([9]; first compound 0.6325 µM): 0.912
- relative viability ([9]; first compound 2 µM): 0.707
- relative viability ([9]; first compound 6.325 µM): 1.03
- relative viability ([9]; first compound 20 µM): 0.804
- relative viability ([10]; first compound 0.2 µM): 0.213
- relative viability ([10]; first compound 2 µM): 0.183
- relative viability ([10]; first compound 6.325 µM): 0.199
- relative viability ([10]; first compound 20 µM): 0.117
- relative viability ([11]; first compound 0.2 µM): 0.692
- relative viability ([11]; first compound 0.6325 µM): 0.443
- relative viability ([11]; first compound 2 µM): 0.419
- relative viability ([11]; first compound 6.325 µM): 0.416
- relative viability ([11]; first compound 20 µM): 0.113
- relative viability ([12]; first compound 0.2 µM): 0.708
- relative viability ([12]; first compound 0.6325 µM): 0.794
- relative viability ([12]; first compound 2 µM): 0.656
- relative viability ([12]; first compound 6.325 µM): 0.725
- relative viability ([12]; first compound 20 µM): 0.757
- relative viability ([13]; first compound 0.2 µM): 1.27
- relative viability ([13]; first compound 0.6325 µM): 0.95
- relative viability ([13]; first compound 6.325 µM): 1.27
- relative viability ([13]; first compound 20 µM): 1.17
- relative viability ([14]; first compound 0.2 µM): 1.24
- relative viability ([14]; first compound 0.6325 µM): 1.03
- relative viability ([14]; first compound 2 µM): 1.14
- relative viability ([14]; first compound 6.325 µM): 1.06
- relative viability ([14]; first compound 20 µM): 0.458
- relative viability ([15]; first compound 0.2 µM): 1.08
- relative viability ([15]; first compound 0.6325 µM): 0.545
- relative viability ([15]; first compound 2 µM): 0.613
- relative viability ([15]; first compound 6.325 µM): 0.0073
- relative viability ([15]; first compound 20 µM): 0.0038
- relative viability ([16]; first compound 0.2 µM): 0.878
- relative viability ([16]; first compound 0.6325 µM): 0.777
- relative viability ([16]; first compound 6.325 µM): 1.04
- relative viability ([16]; first compound 20 µM): 0.581
- relative viability ([17]; first compound 0.2 µM): 0.932
- relative viability ([17]; first compound 6.325 µM): 0.942
- relative viability ([17]; first compound 20 µM): 0.862
- relative viability ([18]; first compound 0.2 µM): 1.26
- relative viability ([18]; first compound 0.6325 µM): 1.01
- relative viability ([18]; first compound 2 µM): 1.06
- relative viability ([18]; first compound 6.325 µM): 1.2
- relative viability ([18]; first compound 20 µM): 0.973
- relative viability ([19]; first compound 0.2 µM): 0.561
- relative viability ([19]; first compound 0.6325 µM): 0.507
- relative viability ([19]; first compound 6.325 µM): 0.532
- relative viability ([19]; first compound 20 µM): 0.283
